In ChEMBL document CHEMBL3881527, “Multi-functional small molecules as anti-proliferative agents” (2008):
Each block holds one molecule with its values, some of them ahead of it. Activity calls are given as the source filed them. The calls are words filed in the database; no cut-off is given here.

What was measured:
[1] = biological target: Platelet-derived growth factor receptor beta (Homo sapiens, UniProt P09619); experiment: Inhibition of N-terminal GST-His6-thrombin cleavage site-fused human PDGFRbeta (Arg561 to Leu1106 residues) assessed as decrease in biotinylated FLT3 phosphorylation at Tyr589 preincubated for 5 mins followed by substrate addition measured after 30 mins by DELFIA method
[2] = biological target: Tyrosine-protein kinase ABL1 (Homo sapiens, UniProt P00519); experiment: (§1) Inhibition of human N-terminal GST-tagged human Abl1 (Pro118 to Ser553 residues) expressed in baculovirus expression system assessed as decrease in biotin signal transduction protein phosphorylation at Tyr160 preincubated for 5 mins followed by substrate addition measured after 30 mins by DELFIA method
[3] = biological target: Proto-oncogene tyrosine-protein kinase Src (Homo sapiens, UniProt P12931); experiment: as §1, with “GST-tagged full length” for “GST-tagged”, “Src (Met1” for “Abl1 (Pro118”, “Leu536” for “Ser553”
[4] = biological target: Mast/stem cell growth factor receptor Kit (Homo sapiens, UniProt P10721); experiment: Inhibition of human N-terminal GST-tagged human c-Kit (Thr544 to Val976 residues) expressed in baculovirus expression system assessed as decrease in biotinylated KDR phosphorylation at Tyr996 preincubated for 5 mins followed by substrate addition measured after 30 mins by DELFIA method
[5] = test system: NCI-H292; experiment: Antitumor activity against human NCI-H292 cells xenografted in nu/nu athymic mouse assessed as tumor growth inhibition at 15 to 60 mg/kg, iv as 2 mins infusion administered via 7 days on 7 days off and 5 days on regimen measured twice weekly during compound dosing; type: functional, organism-based
[6] = test system: HPAC; experiment: Antitumor activity against human HPAC cells xenografted in nu/nu athymic mouse assessed as tumor growth inhibition at 120 mg/kg, iv or ip administered in 30% captisol; type: functional, organism-based
[7] = test system: NCI-H358; experiment: Antitumor activity against human NCI-H358 cells xenografted in nu/nu athymic mouse assessed as tumor growth inhibition at 15 to 60 mg/kg, iv as 2 mins infusion administered via 7 days on 7 days off and 5 days on regimen measured twice weekly during compound dosing; type: functional, organism-based
[8] = test system: HCT-116; experiment: Antitumor activity against human HCT116 cells xenografted in nu/nu athymic mouse assessed as tumor growth inhibition at 15 to 60 mg/kg, iv as 2 mins infusion administered via 5 days on 2 days off and 5 days on regimen measured twice weekly during compound dosing; type: functional, organism-based
[9] = test system: PC-3; experiment: Antitumor activity against human PC3 cells xenografted in nu/nu athymic mouse assessed as tumor growth inhibition at 10 to 40 mg/kg, iv as 2 mins infusion administered via 7 days on 7 days off and 5 days on regimen measured twice weekly during compound dosing; type: functional, organism-based
[10] = test system: BXPC-3; experiment: Antitumor activity against human BxPC3 cells xenografted in nu/nu athymic mouse assessed as tumor growth inhibition at 10 to 40 mg/kg, iv as 2 mins infusion administered via 7 days on 7 days off and 2 days on regimen measured twice weekly during compound dosing; type: functional, organism-based
[11] = test system: A-431; experiment: Antitumor activity against human A431 cells xenografted in nu/nu athymic mouse assessed as tumor growth inhibition at 6 to 48 mg/kg, ip qd administered for 21 days measured twice weekly during compound dosing; type: functional, organism-based
[12] = biological target: Cyclin-dependent kinase 2/cyclin E1 (Homo sapiens, UniProt P24941); experiment: Inhibition of C-terminal His6-tagged full length CDK2/N-terminal GST-tagged recombinant full length human cyclin E1 expressed in baculovirus infected SF21 insect cells using histone H1 as substrate after 2 hrs in presence of [gamma-33P]-ATP
[13] = biological target: CDK6/cyclin D3 (Homo sapiens, UniProt Q00534); experiment: Inhibition of N-terminal His6-tagged full length human CDK6/N-terminal GST-tagged recombinant full length human cyclin D3 expressed in baculovirus infected SF21 insect cells using histone H1 as substrate after 2 hrs in presence of [gamma-33P]-ATP
[14] = biological target: Serine/threonine-protein kinase B-raf (Homo sapiens, UniProt P15056); experiment: Inhibition of N-terminal GST-tagged recombinant human B-Raf ([…] residues) expressed in baculovirus infected Sf21 insect cells using MEK1 as substrate preincubated for 5 mins followed by substrate addition measured after 30 mins by DELFIA
[15] = biological target: Vascular endothelial growth factor receptor 2 (Homo sapiens, UniProt P35968); experiment: Inhibition of N-terminal GST-His6-thrombin cleavage site-fused human VEGFR2 (Asp805 to Val1356 residues) expressed in baculovirus expression system using biotinylated gastrin precursor at Tyr87 as substrate preincubated for 5 mins followed by substrate addition measured after 30 mins by DELFIA method
[16] = Solubility of the compound at pH 2 to 3; type: physicochemical; conditions: buffer
[17] = test system: Colon; experiment: Cmax in CD1 mouse colon at 20 mg/kg, iv administered in 30% captisol as 2 mins infusion by LC/MS/MS analysis; type: ADME, organism-based; parameters: dose 20 mg/kg, route intravenous; conditions: in vivo
[18] = Drug uptake in iv dosed Sprague-Dawley rat plasma administered in 30% captisol as 5 mins infusion; type: ADME, organism-based; conditions: in vivo
[19] = Chemical stability in diluted solution; type: physicochemical
[20] = test system: HCT-116; experiment: Induction of apoptosis in human HCT116 cells assessed as increase in caspase3/7 activity after 24 hrs; type: functional, cell-based; conditions: HCT-116, 24 h
[21] = Toxicity in Sprague-Dawley rat assessed as change in body weight up to 200 mg/kg, ip administered as single dose in 30% captisol measured over 8 days; type: organism-based; conditions: in vivo, 192 h
[22] = Toxicity in CD1 mouse assessed as change in body weight up to 100 mg/kg, ip administered as repeated dosing in 30% captisol measured over 7 days; type: organism-based; conditions: in vivo, 168 h
[23] = Toxicity in CD1 mouse assessed as change in body weight up to 200 mg/kg, iv administered as single dose in 30% captisol measured over 9 days; type: organism-based; conditions: in vivo, 216 h
[24] = Cytotoxicity against human CFPAC cells assessed as growth inhibition by measuring ATP levels after 72 hrs by ATPlite assay; type: functional, cell-based
[25] = Antitumor activity against human A549 cells xenografted in nu/nu athymic mouse assessed as increase in tumor size at 120 mg/kg administered in 30% captisol after 24 hrs (reference value: 240%); type: functional
[26] = test system: SK-BR-3; experiment: Induction of apoptosis in human SKBR3 cells assessed as increase in caspase3/7 activity after 24 hrs; type: functional, cell-based; conditions: SK-BR-3, 24 h
[27] = biological target: Epidermal growth factor receptor (Homo sapiens, UniProt P00533); experiment: Inhibition of N-terminal GST-fused human EGFR (His672 to Ala1210 residues) expressed in baculovirus expression system using biotinylated PTP1B at Tyr66 as substrate preincubated for 5 mins followed by substrate addition measured after 30 mins by DELFIA
[28] = Solubility of the compound at pH 3 to 4; type: physicochemical; conditions: buffer
[29] = biological target: Receptor tyrosine-protein kinase erbB-2 (Homo sapiens, UniProt P04626); experiment: Inhibition of N-terminal GST-tagged human HER2 (Lys676 to Val1255 residues) expressed in baculovirus expression system using biotinylated FLT3 at Tyr589 as substrate preincubated for 5 mins followed by substrate addition measured after 30 mins by DELFIA method
[30] = Solubility of the compound at pH 4 to 5; type: physicochemical; conditions: buffer

Platelet-derived growth factor receptor beta, sequence (P09619 whole entry, the tested form may be a part): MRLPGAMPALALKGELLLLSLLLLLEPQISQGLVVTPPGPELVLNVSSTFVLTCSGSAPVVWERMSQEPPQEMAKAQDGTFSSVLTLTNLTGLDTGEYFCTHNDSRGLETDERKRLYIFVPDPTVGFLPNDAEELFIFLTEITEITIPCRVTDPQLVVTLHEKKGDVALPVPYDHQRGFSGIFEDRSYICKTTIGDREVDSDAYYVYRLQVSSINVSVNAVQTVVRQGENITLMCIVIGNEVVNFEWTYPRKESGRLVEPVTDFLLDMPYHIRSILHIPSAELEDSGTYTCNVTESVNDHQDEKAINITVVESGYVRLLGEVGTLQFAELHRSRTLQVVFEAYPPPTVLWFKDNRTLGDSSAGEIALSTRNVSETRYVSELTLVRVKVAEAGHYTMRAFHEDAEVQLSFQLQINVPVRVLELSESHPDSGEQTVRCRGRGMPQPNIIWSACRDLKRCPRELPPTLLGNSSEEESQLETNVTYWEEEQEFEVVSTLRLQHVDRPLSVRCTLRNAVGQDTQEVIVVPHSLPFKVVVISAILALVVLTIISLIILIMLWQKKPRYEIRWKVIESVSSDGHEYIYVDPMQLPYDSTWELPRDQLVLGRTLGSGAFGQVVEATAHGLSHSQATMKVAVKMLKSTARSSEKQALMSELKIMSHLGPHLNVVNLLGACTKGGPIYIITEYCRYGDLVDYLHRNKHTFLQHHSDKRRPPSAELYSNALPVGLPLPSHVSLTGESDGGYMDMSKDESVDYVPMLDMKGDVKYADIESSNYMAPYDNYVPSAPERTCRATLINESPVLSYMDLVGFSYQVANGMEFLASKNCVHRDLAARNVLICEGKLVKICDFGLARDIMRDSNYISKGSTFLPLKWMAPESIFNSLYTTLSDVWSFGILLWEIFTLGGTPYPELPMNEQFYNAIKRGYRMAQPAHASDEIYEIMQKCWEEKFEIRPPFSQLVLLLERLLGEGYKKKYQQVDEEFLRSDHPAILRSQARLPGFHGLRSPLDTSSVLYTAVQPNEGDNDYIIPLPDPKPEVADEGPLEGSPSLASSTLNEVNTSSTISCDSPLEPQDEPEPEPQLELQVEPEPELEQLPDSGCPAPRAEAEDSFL
Proto-oncogene tyrosine-protein kinase Src, sequence (P12931 2-536 limits assumed): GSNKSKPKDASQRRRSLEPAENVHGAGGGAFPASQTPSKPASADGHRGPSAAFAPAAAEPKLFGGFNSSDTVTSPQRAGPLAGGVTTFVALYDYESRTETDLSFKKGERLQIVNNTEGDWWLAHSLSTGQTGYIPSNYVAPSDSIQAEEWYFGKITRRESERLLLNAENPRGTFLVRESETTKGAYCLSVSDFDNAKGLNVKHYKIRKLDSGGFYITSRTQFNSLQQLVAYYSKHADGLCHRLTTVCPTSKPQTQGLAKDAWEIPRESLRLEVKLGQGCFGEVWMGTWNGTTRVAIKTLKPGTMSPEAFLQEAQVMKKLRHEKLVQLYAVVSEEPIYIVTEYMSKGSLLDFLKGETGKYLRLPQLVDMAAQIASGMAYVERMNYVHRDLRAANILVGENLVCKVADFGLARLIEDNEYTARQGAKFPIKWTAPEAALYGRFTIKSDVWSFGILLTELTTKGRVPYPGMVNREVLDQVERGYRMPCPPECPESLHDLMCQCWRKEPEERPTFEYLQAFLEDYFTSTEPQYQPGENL
Mast/stem cell growth factor receptor Kit, sequence (P10721 whole entry, the tested form may be a part): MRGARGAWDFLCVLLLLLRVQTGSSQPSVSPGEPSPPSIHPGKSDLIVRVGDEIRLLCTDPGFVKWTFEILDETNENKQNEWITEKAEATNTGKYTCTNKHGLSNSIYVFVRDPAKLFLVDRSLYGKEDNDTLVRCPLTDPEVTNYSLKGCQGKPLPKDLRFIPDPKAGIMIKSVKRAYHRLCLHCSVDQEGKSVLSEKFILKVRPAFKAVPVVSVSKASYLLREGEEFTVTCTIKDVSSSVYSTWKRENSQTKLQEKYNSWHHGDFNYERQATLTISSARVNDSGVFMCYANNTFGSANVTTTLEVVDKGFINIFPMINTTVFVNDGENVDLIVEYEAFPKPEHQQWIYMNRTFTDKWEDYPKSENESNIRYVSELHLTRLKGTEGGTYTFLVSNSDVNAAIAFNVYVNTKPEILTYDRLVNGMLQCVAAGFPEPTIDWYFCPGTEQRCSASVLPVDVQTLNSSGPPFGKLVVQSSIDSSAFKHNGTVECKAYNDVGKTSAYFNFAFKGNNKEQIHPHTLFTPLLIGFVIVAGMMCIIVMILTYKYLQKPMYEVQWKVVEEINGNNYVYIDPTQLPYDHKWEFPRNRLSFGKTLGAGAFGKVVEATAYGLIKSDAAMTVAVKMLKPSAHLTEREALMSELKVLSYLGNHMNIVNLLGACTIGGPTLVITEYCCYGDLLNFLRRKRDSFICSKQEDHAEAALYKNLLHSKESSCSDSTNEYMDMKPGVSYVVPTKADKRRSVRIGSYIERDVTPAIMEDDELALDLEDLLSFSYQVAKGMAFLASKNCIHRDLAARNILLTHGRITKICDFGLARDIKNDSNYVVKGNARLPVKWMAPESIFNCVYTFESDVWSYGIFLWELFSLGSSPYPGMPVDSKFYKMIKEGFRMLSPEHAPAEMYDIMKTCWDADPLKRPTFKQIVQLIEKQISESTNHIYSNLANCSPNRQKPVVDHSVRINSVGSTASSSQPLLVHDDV
Receptor tyrosine-protein kinase erbB-2, sequence (P04626 whole entry): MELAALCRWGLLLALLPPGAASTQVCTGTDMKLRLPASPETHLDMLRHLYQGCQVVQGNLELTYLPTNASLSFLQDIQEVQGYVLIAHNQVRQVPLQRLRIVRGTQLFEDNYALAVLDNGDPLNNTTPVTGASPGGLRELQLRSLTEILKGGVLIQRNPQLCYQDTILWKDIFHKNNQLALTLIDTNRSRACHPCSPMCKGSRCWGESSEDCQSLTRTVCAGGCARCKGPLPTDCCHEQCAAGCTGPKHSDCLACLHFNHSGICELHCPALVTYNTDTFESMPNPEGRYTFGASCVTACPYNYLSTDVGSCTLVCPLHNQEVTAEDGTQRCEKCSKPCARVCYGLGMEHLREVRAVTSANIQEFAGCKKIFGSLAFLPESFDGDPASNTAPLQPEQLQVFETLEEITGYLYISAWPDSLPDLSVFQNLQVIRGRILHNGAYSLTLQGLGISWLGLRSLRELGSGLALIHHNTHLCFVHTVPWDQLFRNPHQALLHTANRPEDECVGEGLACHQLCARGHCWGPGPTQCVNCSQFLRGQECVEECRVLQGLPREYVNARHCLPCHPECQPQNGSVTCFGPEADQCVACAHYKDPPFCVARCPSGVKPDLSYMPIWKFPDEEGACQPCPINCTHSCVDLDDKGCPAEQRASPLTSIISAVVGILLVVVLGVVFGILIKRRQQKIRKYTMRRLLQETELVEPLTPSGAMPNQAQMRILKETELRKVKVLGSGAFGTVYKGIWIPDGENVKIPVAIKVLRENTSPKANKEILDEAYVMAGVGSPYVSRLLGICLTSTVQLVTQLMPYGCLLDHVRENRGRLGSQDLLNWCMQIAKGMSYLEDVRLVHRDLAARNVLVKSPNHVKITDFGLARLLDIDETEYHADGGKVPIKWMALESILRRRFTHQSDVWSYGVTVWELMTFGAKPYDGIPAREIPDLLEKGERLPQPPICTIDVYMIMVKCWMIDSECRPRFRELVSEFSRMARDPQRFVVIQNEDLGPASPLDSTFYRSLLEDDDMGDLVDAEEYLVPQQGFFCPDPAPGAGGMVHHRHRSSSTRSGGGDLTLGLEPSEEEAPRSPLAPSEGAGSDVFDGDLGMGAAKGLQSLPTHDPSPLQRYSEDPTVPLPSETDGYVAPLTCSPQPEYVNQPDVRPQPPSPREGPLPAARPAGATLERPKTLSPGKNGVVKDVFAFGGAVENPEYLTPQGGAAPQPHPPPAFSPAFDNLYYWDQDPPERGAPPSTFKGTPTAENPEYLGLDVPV
Tyrosine-protein kinase ABL1, sequence (P00519 whole entry): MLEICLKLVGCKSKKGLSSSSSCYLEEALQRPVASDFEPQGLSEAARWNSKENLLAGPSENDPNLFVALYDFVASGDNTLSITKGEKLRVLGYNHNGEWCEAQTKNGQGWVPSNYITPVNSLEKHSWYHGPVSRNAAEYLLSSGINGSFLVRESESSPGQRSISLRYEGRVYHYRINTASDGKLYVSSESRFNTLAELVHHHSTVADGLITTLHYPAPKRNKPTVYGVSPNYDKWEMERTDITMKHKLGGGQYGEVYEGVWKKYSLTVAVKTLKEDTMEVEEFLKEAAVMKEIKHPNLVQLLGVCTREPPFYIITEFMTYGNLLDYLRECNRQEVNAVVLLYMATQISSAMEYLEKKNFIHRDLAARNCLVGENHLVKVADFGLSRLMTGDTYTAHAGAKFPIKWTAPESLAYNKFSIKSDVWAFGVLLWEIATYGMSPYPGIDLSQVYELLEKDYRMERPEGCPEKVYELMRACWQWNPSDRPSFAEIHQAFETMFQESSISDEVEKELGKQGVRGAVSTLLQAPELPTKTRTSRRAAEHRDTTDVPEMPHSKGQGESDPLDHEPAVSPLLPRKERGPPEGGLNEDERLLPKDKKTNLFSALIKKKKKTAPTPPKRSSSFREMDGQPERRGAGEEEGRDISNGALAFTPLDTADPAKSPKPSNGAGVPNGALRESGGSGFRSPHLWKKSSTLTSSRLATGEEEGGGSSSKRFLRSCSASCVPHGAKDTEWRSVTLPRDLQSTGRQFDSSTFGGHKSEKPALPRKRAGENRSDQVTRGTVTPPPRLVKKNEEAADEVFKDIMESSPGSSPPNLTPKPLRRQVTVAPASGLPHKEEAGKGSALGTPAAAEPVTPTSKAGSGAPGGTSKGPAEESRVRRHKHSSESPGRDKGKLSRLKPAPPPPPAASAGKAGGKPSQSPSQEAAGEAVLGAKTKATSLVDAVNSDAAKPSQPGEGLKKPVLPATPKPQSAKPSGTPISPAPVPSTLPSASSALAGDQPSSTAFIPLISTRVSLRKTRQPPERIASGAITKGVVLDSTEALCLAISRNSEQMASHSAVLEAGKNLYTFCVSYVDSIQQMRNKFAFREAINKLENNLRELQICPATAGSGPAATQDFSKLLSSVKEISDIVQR

SMILES: Cc1nc(NCCCCCC(=O)NO)cc(Nc2ncc(C(=O)Nc3c(C)cccc3Cl)s2)n1
IC50 [1]: ≤ 100 nM
IC50 [2]: ≤ 100 nM
IC50 [3]: ≤ 100 nM
IC50 [4]: ≤ 100 nM

SMILES: C#Cc1cccc(Nc2ncnc3cc(OC)c(OCCCCCCC(=O)NO)cc23)c1
TGI [5]: Active
TGI [6]: Active
TGI [7]: Active
TGI [8]: Active
TGI [9]: Active
TGI [10]: Active
TGI [11]: Active

SMILES: Cc1nc(Nc2ncc(C(=O)Nc3c(C)cccc3Cl)s2)cc(N2CCN(CCCCCC(=O)NO)CC2)n1
IC50 [1]: ≤ 100 nM
IC50 [2]: ≤ 100 nM
IC50 [3]: ≤ 100 nM
IC50 [4]: ≤ 100 nM

SMILES: CC(C)(C)c1cnc(CSc2cnc(NC(=O)Cc3ccc(OCCCC(=O)NO)cc3)s2)o1
IC50 [12]: ≤ 100 nM

SMILES: O=C(CCCCCNC(=O)c1cc(Oc2ccc(NC(=O)Nc3ccc(Cl)c(C(F)(F)F)c3)cc2)ccn1)NO
IC50 [14]: 1000 to 10000 nM
IC50 [1]: 100 to 1000 nM
IC50 [15]: ≤ 100 nM
IC50 [4]: ≤ 100 nM

SMILES: CC(C)(C)c1cnc(CSc2cnc(NC(=O)CCCCCCC(=O)NO)s2)o1
IC50 [12]: ≤ 100 nM

SMILES: O=C(CCCCCCC(=O)NCc1cc(Oc2ccc(NC(=O)Nc3ccc(Cl)c(C(F)(F)F)c3)cc2)ccn1)NO
IC50 [1]: 100 to 1000 nM
IC50 [15]: ≤ 100 nM
IC50 [4]: ≤ 100 nM

SMILES: C#Cc1cccc(Nc2ncnc3cc(OC)c(OCCCCCCC(=O)NO)cc23)c1.Cl
solubility [16]: 25 mg/mL
Cmax [17]: 8.5 µM
Drug uptake [18]: Dose-dependent effect
Stability [19]: > 12 h

SMILES: C#Cc1cccc(Nc2ncnc3cc(OC)c(OCCCCCCC(=O)NO)cc23)c1 [CUDC-101]
IC50 [20]: 170 nM
Activity [21]: Non-Toxic
Activity [22]: Non-Toxic
Activity [23]: Non-Toxic
IC50 [24]: 100 to 1000 nM
Activity [25]: 150%
IC50 [26]: 920 nM

SMILES: CC(C)(C)c1cnc(CSc2cnc(NC(=O)Cc3ccc(OCCCCC(=O)NO)cc3)s2)o1
IC50 [12]: ≤ 100 nM

SMILES: C#Cc1cccc(Nc2ncnc3cc(OC)c(OCCCCCCC(=O)NO)cc23)c1.O=C(O)C(O)C(O)C(=O)O
solubility [28]: 60 mg/mL
Stability [19]: > 12 h

SMILES: COCCOc1cc2ncnc(Nc3ccc(F)c(Cl)c3)c2cc1NC(=O)CCCCCCC(=O)NO
IC50 [29]: ≤ 100 nM
IC50 [24]: 1000 to 10000 nM

SMILES: O=C(CCCCCCCNC(=O)c1cc(Oc2ccc(NC(=O)Nc3ccc(Cl)c(C(F)(F)F)c3)cc2)ccn1)NO
IC50 [1]: 100 to 1000 nM
IC50 [15]: 100 to 1000 nM
IC50 [4]: ≤ 100 nM

SMILES: CC(C)(C)c1cnc(CSc2cnc(NC(=O)CCCCCC(=O)NO)s2)o1
IC50 [12]: ≤ 100 nM
IC50 [13]: 100 to 1000 nM

SMILES: COc1cc2ncnc(N[C@H](C)c3ccccc3)c2cc1OCCCCCC(=O)NO
IC50 [24]: 1000 to 10000 nM

SMILES: COc1cc2ncnc(NCc3ccccc3)c2cc1OCCCCCCC(=O)NO
IC50 [24]: 1000 to 10000 nM

SMILES: O=C(CCCCCCOc1ccc2ncnc(Nc3ccc(F)c(Cl)c3)c2c1)NO
IC50 [29]: 100 to 1000 nM
IC50 [24]: 100 to 1000 nM

SMILES: C#Cc1cccc(Nc2ncnc3cc(OC)c(OCCCCCCC(=O)N[O-])cc23)c1.[Na+]
Stability [19]: > 12 h

Second part, led by results:

IC50 [12]: ≤ 100 nM
IC50 [13]: 100 to 1000 nM
SMILES: CC(C)(C)c1cnc(CSc2cnc(NC(=O)CCCC(=O)NO)s2)o1

IC50 [1]: ≤ 100 nM
IC50 [2]: ≤ 100 nM
IC50 [3]: ≤ 100 nM
IC50 [4]: ≤ 100 nM
SMILES: Cc1nc(NCCCCCCC(=O)NO)cc(Nc2ncc(C(=O)Nc3c(C)cccc3Cl)s2)n1

IC50 [1]: 100 to 1000 nM
IC50 [15]: ≤ 100 nM
IC50 [4]: ≤ 100 nM
SMILES: O=C(CCCCC(=O)NCc1cc(Oc2ccc(NC(=O)Nc3ccc(Cl)c(C(F)(F)F)c3)cc2)ccn1)NO

IC50 [27]: ≤ 100 nM
SMILES: COc1cc2ncnc(Nc3ccc(F)c(Cl)c3)c2cc1OCCOc1ccc(/C=C/C(=O)NO)cc1
IC50 [24]: ≥ 10000 nM

IC50 [1]: ≤ 100 nM
IC50 [2]: ≤ 100 nM
IC50 [3]: ≤ 100 nM
IC50 [4]: ≤ 100 nM
SMILES: Cc1nc(Nc2ncc(C(=O)Nc3c(C)cccc3Cl)s2)cc(N2CCN(CCCCCCC(=O)NO)CC2)n1

IC50 [1]: ≤ 100 nM
IC50 [2]: ≤ 100 nM
IC50 [3]: ≤ 100 nM
SMILES: Cc1nc(Nc2ncc(C(=O)Nc3c(C)cccc3Cl)s2)cc(N2CCN(CCCCC(=O)NO)CC2)n1

IC50 [20]: > 20000 nM
IC50 [26]: > 20000 nM
SMILES: C#Cc1cccc(Nc2ncnc3cc(OCCOC)c(OCCOC)cc23)c1 [ERLOTINIB]

solubility [30]: 25 mg/mL
Stability [19]: > 12 h
SMILES: C#Cc1cccc(Nc2ncnc3cc(OC)c(OCCCCCCC(=O)NO)cc23)c1.O=C(O)CC(O)(CC(=O)O)C(=O)O

IC50 [29]: 100 to 1000 nM
SMILES: COc1cc2ncnc(Nc3ccc(F)c(Cl)c3)c2cc1NC(=O)CCCCCCC(=O)NO
IC50 [24]: 1000 to 10000 nM

IC50 [12]: ≤ 100 nM
IC50 [13]: 100 to 1000 nM
SMILES: CC(C)(C)c1cnc(CSc2cnc(NC(=O)CCCCC(=O)NO)s2)o1
